Experimental data published in PMC11990103, “Anticancer Activity and Safety Profile of Novel 1-(4-Fluorophenoxyacetyl)-4-substituted Thio/Semicarbazide Derivatives” (Molecules, 2025).

Columns and labels:
Type in all cases: cell-based, human
[1] = system: A375 melanoma cell line; assay: MTT cytotoxicity assay; details: 48 h treatment
Description: These cancer cell lines comprised prostate cancer (PC-3, DU-145, LNCaP), melanoma (SK-MEL28, A375, G-361), breast cancer (MCF-7, MDA-MB-231), and lung cancer (NCI-H1563). The MTT assay was carried out across a wide range of concentrations for 48 h.
The research was conducted on one primary cell line: BJ (fibroblast) and four types of cancerous ones: three prostate cancer cell lines (PC-3, DU-145, LNCaP); 3 Melanoma cell lines (MEL-28, A375, G-361); 2 breast cancer cell lines (MCF-7, MDA-MB-23) and one lung cancer cell line (NCI-H1563). All cell lines were obtained from the American Type Culture Collection (ATCC, Manassas, VA, USA) and were grown in media (Corning, New York, NY, USA) according to ATCC guidelines. The culture media was enriched with 10% heat-inactivated fetal bovine serum (Life Technologies, Carlsbad, CA, USA) and antibiotics: penicillin (100 units) and streptomycin (100 μg/mL) from Sigma-Aldrich (St. Louis, MO, USA). The cells were incubated at 37 °C with 5% CO2 in air.
The cytotoxic analysis of thiosemicarbazides (TSC) (AB1–AB6) and semicarbazides (SC) (AB7–AB12) was conducted in various concentrations. […] The cells were treated with compounds or DMSO as a vehicle in control cultures for 48h. IC50 values were determined using the AAT Bioquest IC50 calculator (AAT Bioquest, Inc., Pleasanton, CA, USA, Quest Graph™ EC50 Calculator. https://www.aatbio.com/tools/ec50-calculator) (accessed on 7 October 2024).
The cytotoxic activity of the thiosemicarbazides and semicarbazides was measured using the MTT colorimetric assay (MTT Cell Proliferation Assay Kit—Invitrogen, Waltham, MA, USA). The cells were seeded in the 96-well plates at a density of 1.5 × 10^5 cells/mL. After reaching 70–80% of confluence, the tested compounds in a wide range of concentrations were added. Plates were incubated for 48 h at 37 °C in 5% CO2 air. Then, […] tetrazolium salt (3-(4,5-dimethylthiazol-2-yl)-2,5-diphenyltetrazolium bromide)—MTT reagent (0.5 mg/mL) dissolved in PBS was added to each well for 4 h. The MTT solution was then removed from above the water-insoluble purple formazan crystals, which were then dissolved in DMSO (dimethyl sulfoxide, […]; POCH, Gliwice, Poland). The absorbance value of obtained solutions was measured using a PowerWave ™ microplate spectrophotometer (Bio-Tek Instruments, Winooski, VT, USA) at a wavelength of 570 nm. Each cytotoxicity assay was repeated three times in triplicates.

[2] = system: G-361 melanoma cells; assay: Cell cycle analysis by image cytometry (NucleoCounter NC-3000); details: G-361, 48 h, AB2 at concentration corresponding to IC50
Description: (§1) To further evaluate the anticancer activity of thiosemicarbazide derivative AB2 in G-361 and LNCaP cell lines, cell cycle analysis by image cytometry and detection of apoptosis using annexin V and propidium iodide was performed. Analyses of the action of AB2 on the distribution of cells in different phases of the cell cycle indicated a significant increase in the population of cells in the sub-G1 phase compared to the control cultures, in both tested prostate and melanoma cells. This population increased from 7% and 5% in control cells to 26% and 27% after exposure to AB2 in LNCaP and G-361 cells, respectively (Figure 8A). The increase in the cell population in the sub-G1 phase indicates the presence of apoptosis or necrosis in the investigated cells and not a significant inhibition of cell proliferation, i.e., a cytostatic effect.
(§2) Cell cycle analysis was assessed with the NucleoCounter NC-3000 (ChemoMetec, Allerod, Denmark) following the 2-Step Cell Cycle Assay protocol recommended by the manufacturer. The research was performed after 48 h incubation of prostate cancer cells (LNCaP) and melanoma cells (G-361) with AB2 compound in a concentration corresponding to IC50 value. Analysis was performed in line with the previously described methodology.

[3] = system: LNCaP prostate cancer cells; assay: as above; details: 48 h, AB2 at concentration corresponding to IC50
Description: as §1, §2

[4] = system: G-361 melanoma cells; assay: Apoptosis detection, annexin V and propidium iodide; details: G-361, 48 h, concentration approximate to IC50
Description: as §1
(§3) In prostate cancer cells, the percentage of early apoptotic cells substantially elevated after AB2 treatment compared with the control group, indicating the initial activation of the apoptotic pathway. […] The percentage of cells in the early phase of apoptosis is approximately 36% and 28% in LNCaP and G-361 cells, respectively (Figure 8B). At the same time, the population of cells in late apoptosis increased in both cell lines, implying a progression of the apoptotic process after AB2 exposure. […]

[5] = system: LNCaP prostate cancer cells; assay: as above; details: 48 h, concentration approximate to IC50
Description: as §1, §3

## O=C(COc1ccc(F)cc1)NNC(=S)Nc1ccccc1Cl [AB2]
[1]
  IC50: 429 µM
[2]
  cells in sub-G1 phase (M1): 27%
[3]
  cells in sub-G1 phase (M1): 26%
[4]
  early apoptotic cells (Q1lr): ~28%
[5]
  late apoptotic cells (Q1ur): 37%
